Data from patent publication EP0969854B1, “INHIBITION OF SIGNAL TRANSDUCTION BY THE BINDING OF NON-PHOSPHORYLATED COMPOSITIONS” (GEORGETOWN UNIVERSITY, priority 1996, dated 2006).
Bridge positions count the residues as written; N and C are the ends. Ends that are not written are not given here.

How the values were obtained:
cell proliferation = conditions: cited from earlier work
Grb2 SH2 domain = assay: Surface plasmon resonance (Biacore): inhibition of GST-Grb2 binding to immobilised SHC phosphopeptide; conditions: for inhibition of Grb2 binding to the SHC phosphopeptide: peptide at 50 µM; for inhibiting activity: peptide at 500 µM
Description: The G1 peptide (CELYENVGMYC [disulfide bonded]) was used as an inhibitor of the interaction of the Grb2 with a SHC phosphopeptide in surface plasmon resonance (Biacore) experiments. The SHC phosphopeptide was attached to the solid surface by incorporation of a biotin at the N-terminus as described in Pelicci, G., et al., "The motogenic and mitogenic responses to HGF are amplified by the Shc adaptor protein," Oncogene, 10: 1631-1638, 1995. This biotinylated phospho-SHC peptide was then bound to the streptavidin on the surface of SA5 chips (Pharmacia-Biacore). The binding was conducted at a 2nM and 5 µl/minute for 10 minutes. The peptides were mixed with 200 nM GST-Grb2 in HBS buffer (Pharmacia Biacore) and allowed to bind for 10 minutes at a flow rate of 5 µl/minute. The Ru change at equilibrium was calculated and the percent of control (no added peptide) binding was calculated.
The G1 peptide was compared to SHC phosphopeptide (DDPSpYVNVQ), G1C-S (SELYENVGMYS), which is similar to G1 but wherein the cysteines are replaced with serines, and SHC control peptide (DDPSYVNVQ), in which the tyrosine is not phosphorated.
Songyang et al. Mol. Cell Biol., 14:2777-2785 (1994). The requirement of these amino acids in the G1 peptide sequence was tested by synthesizing peptides with alanine substitutions at these positions. G1.4Y-A contains an alanine substitution in place of the tyrosine at position 4 (CELAENVGMYC) and G16N-A contains an alanine substitution for the asparagine at position 6 (CELYEAVGMYC). […] The binding of peptide to the Grb2 SH2 domain was measured by surface plasmon resonance (Pharmacia Biacore). The percent inhibition was calculated by comparison of the Rueq in the presence of peptide with the Rueq with no inhibiting peptide present.

[1] = biological target: intact GST-Grb2 fusion protein (UniProt P62993); assay: SPR competition in solution, SHC phosphopeptide and G1 for GST-Grb2 compared directly (Figure 6)
UniProt P62993, sequence (P62993 whole entry, the tested form may be a part): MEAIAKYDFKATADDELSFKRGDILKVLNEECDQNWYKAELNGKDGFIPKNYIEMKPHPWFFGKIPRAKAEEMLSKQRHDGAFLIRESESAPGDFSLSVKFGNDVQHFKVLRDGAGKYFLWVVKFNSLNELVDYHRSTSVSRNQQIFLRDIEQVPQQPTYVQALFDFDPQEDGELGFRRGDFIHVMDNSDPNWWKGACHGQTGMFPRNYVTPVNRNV

Row | Molecule | block of cell proliferation (cell proliferation) | inhibition of Grb2 binding to the SHC phosphopeptide (Grb2 SH2 domain) | inhibiting activity (Grb2 SH2 domain) | fold difference in affinity against SHC phosphopeptide [1] [fold]
1 | AcpYEEIE | lack of effect |  |  | 
2 | CELYEAVGMYC [G16N-A, alanine substitution for the asparagine at position 6] |  | No inhibition | limited activity | 
3 | CELAENVGMYC [G1.4Y-A, alanine substitution in place of the tyrosine at position 4] |  | No inhibition | limited activity | 
4 | CELYENVGMYC (disulfide 1-11) [G1 peptide (… [disulfide bonded])] |  |  |  | 10
